Experimental data from paper PMC3569039 (Bioorganic & medicinal chemistry letters, 2011).

Test system: HeLa cells

Fluo-3
cellular debris in treated cells (apparent cytotoxicity): significant amount of cellular debris
